For 19 compounds, inhibition results are on record in US9481676B2, “Azepino[4,5-B]indoles and methods of use” (Medivation Technologies, Inc., priority 2008, dated 2016).

For experiment [1], the target named is T1, human recombinant histamine H1 receptor (Homo sapiens, UniProt P35367).
T1 construct: expressed in transfected cells; host or cells: CHO cells
Nature of the experiment: Histamine H1 radioligand binding ([3H]Pyrilamine). The conditions noted are these: compound at 1 μM; read-out: Histamine Binding (1 μM) H1, percent inhibition of specific binding. In short, it runs like this: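 Membranes from CHO cells expressing the receptor were incubated with compound and 1.2 nM [3H]pyrilamine for 180 min at 25 °C in 50 mM Tris-HCl pH 7.4 with MgCl2, NaCl and sucrose; 1 μM pyrilamine defined non-specific binding. Filter-bound radioactivity was counted.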

In experiment [2] the target is T2, human recombinant histamine H2 receptor (Homo sapiens, UniProt P25021).
T2 construct: expressed in transfected cells; host or cells: CHO-K1 cells
Nature of the experiment: Histamine H2 radioligand binding ([125I]Aminopotentidine). The note with it: compound at 1 μM; read-out: Histamine Binding (1 μM) H2, percent inhibition of specific binding. In outline: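 Membranes from CHO-K1 cells expressing recombinant human H2 receptor, in 50 mM phosphate buffer pH 7.4, incubated with 0.1 nM [125I]aminopotentidine for 120 min at 25 °C; nonspecific binding defined with 3 μM tiotidine.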

Experiment [3] concerns the target T3, human recombinant adrenergic α1D receptor (Homo sapiens, UniProt P25100).
T3 construct: expressed in transfected cells; host or cells: HEK-293 cells
T3 sequence (P25100 1-572): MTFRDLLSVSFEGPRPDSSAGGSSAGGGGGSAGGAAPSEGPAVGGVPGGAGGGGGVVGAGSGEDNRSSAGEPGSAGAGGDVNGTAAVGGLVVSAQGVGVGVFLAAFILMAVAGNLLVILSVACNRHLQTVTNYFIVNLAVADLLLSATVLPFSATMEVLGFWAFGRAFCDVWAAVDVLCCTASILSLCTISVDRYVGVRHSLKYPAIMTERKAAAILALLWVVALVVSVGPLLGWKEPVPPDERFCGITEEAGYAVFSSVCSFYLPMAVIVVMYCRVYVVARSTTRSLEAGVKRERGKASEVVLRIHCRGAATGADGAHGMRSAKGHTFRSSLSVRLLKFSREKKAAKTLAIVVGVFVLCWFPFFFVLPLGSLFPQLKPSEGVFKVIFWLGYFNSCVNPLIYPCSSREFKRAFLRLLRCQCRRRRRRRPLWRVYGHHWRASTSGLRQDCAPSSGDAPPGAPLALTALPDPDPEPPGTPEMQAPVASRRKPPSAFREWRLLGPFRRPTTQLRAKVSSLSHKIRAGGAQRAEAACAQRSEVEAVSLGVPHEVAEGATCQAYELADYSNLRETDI
The experiment can be described thus: Adrenergic alpha1D radioligand binding ([3H]Prozosin). The conditions noted are these: compound at 1 μM; read-out: Adrenergic (1 μM) α1D, percent inhibition of specific binding. In outline:
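Membranes from HEK-293 cells expressing the human receptor in 50 mM Tris-HCl pH 7.4 were incubated 60 min at 25 °C with 0.6 nM [3H]prazosin. Nonspecific binding was defined with 10 μM phentolamine, and bound ligand measured by filtration.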

The target of experiment [4] is T4, human recombinant serotonin (5-Hydroxytryptamine) 5-HT6 receptor (Homo sapiens, UniProt P50406).
T4 construct: expressed in transfected cells; host or cells: human HeLa cells
The experiment can be described thus: Serotonin 5-HT6 radioligand binding ([3H]LSD). The note with it: compound at 1 μM; read-out: Serotonin (1 μM) 5-HT6, percent inhibition of specific binding. In short, it runs like this:
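Human recombinant 5-HT6 receptor from HeLa cells incubated with 1.5 nM [3H]LSD for 120 min at 37° C in 50 mM Tris-HCl pH 7.4, 150 mM NaCl, 2 mM ascorbic acid, 0.001% BSA. Nonspecific binding defined with 5 μM serotonin; bound ligand counted after filtration.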

T2 sequence (P25021 whole entry): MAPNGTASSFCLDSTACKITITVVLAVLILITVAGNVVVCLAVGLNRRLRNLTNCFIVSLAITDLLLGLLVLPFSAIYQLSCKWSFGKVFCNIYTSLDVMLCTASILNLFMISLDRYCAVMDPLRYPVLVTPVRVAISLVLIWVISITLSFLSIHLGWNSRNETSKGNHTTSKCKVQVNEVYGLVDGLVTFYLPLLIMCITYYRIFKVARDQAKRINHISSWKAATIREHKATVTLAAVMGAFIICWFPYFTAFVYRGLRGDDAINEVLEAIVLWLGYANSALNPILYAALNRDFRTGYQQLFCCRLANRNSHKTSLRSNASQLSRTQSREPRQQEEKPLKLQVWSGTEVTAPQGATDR
T4 sequence (P50406 whole entry): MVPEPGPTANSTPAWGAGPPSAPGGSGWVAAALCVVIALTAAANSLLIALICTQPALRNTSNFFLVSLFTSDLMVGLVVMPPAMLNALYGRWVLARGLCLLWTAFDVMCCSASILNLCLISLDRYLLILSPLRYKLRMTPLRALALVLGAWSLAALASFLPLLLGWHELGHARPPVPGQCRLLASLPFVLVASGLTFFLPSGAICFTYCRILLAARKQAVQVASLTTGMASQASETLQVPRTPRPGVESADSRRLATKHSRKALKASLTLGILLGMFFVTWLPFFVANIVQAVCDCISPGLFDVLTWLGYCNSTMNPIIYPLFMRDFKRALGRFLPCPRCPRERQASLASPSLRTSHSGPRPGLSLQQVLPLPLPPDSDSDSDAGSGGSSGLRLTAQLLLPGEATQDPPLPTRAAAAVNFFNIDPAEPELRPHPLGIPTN
T1 sequence (P35367 whole entry): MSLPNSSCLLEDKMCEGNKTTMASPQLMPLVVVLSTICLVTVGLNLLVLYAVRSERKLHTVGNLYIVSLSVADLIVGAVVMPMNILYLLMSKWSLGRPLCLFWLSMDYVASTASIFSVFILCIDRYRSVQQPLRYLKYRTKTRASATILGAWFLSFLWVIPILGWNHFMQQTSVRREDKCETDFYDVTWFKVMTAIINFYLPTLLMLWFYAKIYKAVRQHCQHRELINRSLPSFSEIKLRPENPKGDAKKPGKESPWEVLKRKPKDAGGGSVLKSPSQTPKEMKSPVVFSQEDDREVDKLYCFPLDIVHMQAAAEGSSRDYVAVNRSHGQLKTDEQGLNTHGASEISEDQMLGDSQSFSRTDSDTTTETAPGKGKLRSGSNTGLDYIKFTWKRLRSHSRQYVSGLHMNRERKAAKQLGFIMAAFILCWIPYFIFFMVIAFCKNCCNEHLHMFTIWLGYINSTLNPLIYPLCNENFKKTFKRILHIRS

`Cc1ccc2c(c1)c1c(n2CC(C)(O)c2ccc(Cl)cc2)CCN(C)CC1` (stereo not shown) [Compound No. 15, 2-(4-chlorophenyl)-1-(2,3,4,5-tetrahydro-3,9-dimethylazepino[4,5-b]indol-6(1H)-yl)propan-2-ol]: the inhibition (usually the relative decrease from the control value, in per cent) at 1 µM in experiment [1] came out at 100%; in experiment [2], 92%; in experiment [3] it was 72%; in experiment [4] it was 82%.
Take `Cc1ccc2c(c1)c1c(n2CC(O)c2ccc(Cl)cc2)CCN(C)CC1` (stereo not shown) [Compound No. 17, 1-(4-chlorophenyl)-2-(2,3,4,5-tetrahydro-3,9-dimethylazepino[4,5-b]indol-6(1H)-yl)ethanol]: the inhibition at 1 µM in experiment [1] came out at 101%; in experiment [2], 84%; in experiment [3], 95%; in experiment [4], 80%.
The like results for `CN1CCc2c(n(CC(=O)N3CCNCC3)c3ccc(Cl)cc23)CC1` [Compound No. 72, 2-(9-chloro-2,3,4,5-tetrahydro-3-methylazepino[4,5-b]indol-6(1H)-yl)-1-(piperazin-1-yl)ethanone] were, in that order, -12%, 0%, 17% and 39%.
As to `CN1CCc2c(n(CC(C)(O)c3ccc(Cl)cc3)c3ccc(Cl)cc23)CC1` (stereo not shown) [Compound No. 12, 1-(9-chloro-2,3,4,5-tetrahydro-3-methylazepino[4,5-b]indol-6(1H)-yl)-2-(4-chlorophenyl)propan-2-ol], the inhibition at 1 µM in experiment [1] came out at 99%; in experiment [2], 98%; in experiment [3] it was 68%; in experiment [4] it was 83%.
On the same counts, the results for `CN1CCc2c(n(CCc3ccccc3F)c3ccccc23)CC1` [Compound No. 237, 6-(2-fluorophenethyl)-3-methyl-1,2,3,4,5,6-hexahydroazepino[4,5-b]indole] are 96%, 81%, 70% and 103%.
On the same counts, the results for `COc1ccc(C(O)Cn2c3c(c4cc(Cl)ccc42)CCN(C)CC3)cc1` (stereo not shown) [Compound No. 47, 2-(9-chloro-2,3,4,5-tetrahydro-3-methylazepino[4,5-b]indol-6(1H)-yl)-1-(4-methoxyphenyl)ethanol] are 100%, 70%, 97% and 77%.
The like results for `C/C(=C\n1c2c(c3cc(C)ccc31)CCN(C)CC2)c1ccc(Cl)cc1Cl` [Compound No. 238, (E)-6-(2-(2,4-dichlorophenyl)prop-1-enyl)-3,9-dimethyl-1,2,3,4,5,6-hexahydroazepino[4,5-b]indole] were, in that order, 98%, 98%, 30% and 86%.
Regarding `Cc1ccc2c(c1)c1c(n2CC(=O)N2CCOCC2)CCN(C)CC1` [Compound No. 38, 2-(2,3,4,5-tetrahydro-3,9-dimethylazepino[4,5-b]indol-6(1H)-yl)-1-morpholinoethanone], the inhibition at 1 µM in experiment [1] was found to be 83%; in experiment [2], 26%; in experiment [3], 38%; in experiment [4], 41%.
On the same counts, the results for `Cc1ccc2c(c1)c1c(n2/C=C/c2ccccc2)CCN(C)CC1` [Compound No. 229, (E)-3,9-dimethyl-6-styryl-1,2,3,4,5,6-hexahydroazepino[4,5-b]indole] are 100%, 94%, 97% and 102%.
The like results for `Cc1ccc2c(c1)c1c(n2CC(=O)NC2CCCCC2)CCN(C)CC1` [Compound No. 22, N-cyclohexyl-2-(2,3,4,5-tetrahydro-3,9-dimethylazepino[4,5-b]indol-6(1H)-yl)acetamide] were, in that order, 12%, 5%, 1% and -12%.
The like results for `Cc1ccc2c(c1)c1c(n2CC(=O)OC2CCCC2)CCN(C)CC1` [Compound No. 55, Cyclopentyl-2-(2,3,4,5-tetrahydro-3,9-dimethylazepino[4,5-b]indol-6(1H)-yl)acetate] were, in that order, 15%, -3%, 8% and 4%.
For the compound `CN1CCc2c(n(CC(=O)N3CCOCC3)c3ccc(Cl)cc23)CC1` [Compound No. 60, 2-(9-chloro-2,3,4,5-tetrahydro-3-methylazepino[4,5-b]indol-6(1H)-yl)-1-morpholinoethanone], the inhibition at 1 µM in experiment [1] is 2%; in experiment [2], 6%; in experiment [3], -1%; in experiment [4], 3%.
As for `Cc1ccc2c(c1)c1c(n2CCc2ccc(C(F)(F)F)nc2)CCN(C)CC1` [Compound No. 20, 6-(2-(6-(trifluoromethyl)pyridin-3-yl)ethyl)-1,2,3,4,5,6-hexahydro-3,9-dimethylazepino[4,5-b]indole], the inhibition at 1 µM is 99% in experiment [1], 37% in experiment [2], 91% in experiment [3] and 46% in experiment [4].
On the same counts, the results for `CN1CCc2c(n(CCc3cncc(Cl)c3)c3ccc(Cl)cc23)CC1` [Compound No. 10, 9-chloro-6-(2-(5-chloropyridin-3-yl)ethyl)-1,2,3,4,5,6-hexahydro-3-methylazepino[4,5-b]indole] are 101%, 78%, 89% and 97%.
`Cc1ccc2c(c1)c1c(n2CC(=O)N2CCCC2)CCN(C)CC1` [Compound No. 45, 2-(2,3,4,5-tetrahydro-3,9-dimethylazepino[4,5-b]indol-6(1H)-yl)-1-(pyrrolidin-1-yl)ethanone]: the inhibition at 1 µM was 13% in experiment [1], 7% in experiment [2], 1% in experiment [3] and 2% in experiment [4].
On the same counts, the results for `Cc1ccc2c(c1)c1c(n2CCc2ccc(C(=O)O)nc2)CCN(C)CC1` [Compound No. 11, 5-(2-(2,3,4,5-tetrahydro-3,9-dimethylazepino[4,5-b]indol-6(1H)-yl)ethyl)pyridine-2-carboxylic acid] are 97%, 7%, 7% and 4%.
With `CN1CCc2c(n(C#Cc3ccc(F)cc3)c3ccc(Cl)cc23)CC1` [Compound No. 281, 9-chloro-6-((4-fluorophenyl)ethynyl)-3-methyl-1,2,3,4,5,6-hexahydroazepino[4,5-b]indole], the inhibition at 1 µM came to 56% in experiment [1], 76% in experiment [2], 75% in experiment [3] and 97% in experiment [4].
The like results for `CN1CCc2c(n(CC(=O)N3CCCC3)c3ccc(Cl)cc23)CC1` [Compound No. 53, 2-(9-chloro-2,3,4,5-tetrahydro-3-methylazepino[4,5-b]indol-6(1H)-yl)-1-(pyrrolidin-1-yl)ethanone] were, in that order, 14%, 3%, 13% and -1%.
Turning to `CN1CCc2c(n(CC(O)c3ccncc3)c3ccc(Cl)cc23)CC1` (stereo not shown) [Compound No. 42, 2-(9-chloro-2,3,4,5-tetrahydro-3-methylazepino[4,5-b]indol-6(1H)-yl)-1-(pyridin-4-yl)ethanol], the inhibition at 1 µM in experiment [1] amounted to 103%; in experiment [2] it was 45%; in experiment [3], 73%; in experiment [4] it was 73%.
